In US20110245197A1, “HYPERSULFATED GLUCOPYRANOSIDES” (OPKO Health, Inc., priority 2010, published 2011):

Tested on: allergic sheep (dual bronchoconstrictor responders to Ascaris suum antigen)
Assay: Antigen-induced change in specific pulmonary airflow resistance (SRL): early (EAR) and late (LAR) airway response in allergic sheep
Assay type: in vivo
Description: Pulmonary airflow resistance was measured by taking allergic sheep previously verified as dual bronchoconstrictor responders to Ascaris suum antigen. The sheep were intubated with a cuffed nasotracheal tube and pulmonary airflow resistance (RL) was measured by the esophageal balloon catheter technique, while thoracic gas volume was measured by body plethysmography. Data were expressed as specific RL (SRL, defined as RL times thoracic gas volume (Vtg)). Airway responsiveness was determined by first securing cumulative dose response curves to inhaled carbachol (a constrictor agonist) by measuring SRL before and after inhalation of buffered saline and after each administration of 10 breaths of increasing concentrations of carbachol (0.25, 0.5, 1.0, 2.0 and 4.0% wt/vol solution). Airway responsiveness was measured by determining the cumulative provocation dose (PD400) of carbachol (in breath units) that increased SRL to 400% above baseline. One breath unit was defined as one breath of 1% carbachol solution.
To illustrate the effectiveness of the formulations according to the invention to treat and alleviate allergen related diseases and conditions, including but not limited to the specific diseases and conditions recited herein, sheep were assessed in multiple experiments which compared various formulations containing no added polymer or additive to animals which were provided formulations comprising a compound of formula I (as compound 1a) along with an optional additive selected from a polymer. To measure pulmonary airflow resistance, the sheep were intubated with a cuffed nasotracheal tube and pulmonary airflow resistance (RL) was measured by the esophageal balloon catheter technique, while thoracic gas volume was measured by body plethysmography. […] Data were expressed as specific RL (SRL defined as RL× thoracic gas volume (Vg).
For airway studies, each animal's baseline airway responsiveness (PD400)) was determined and then, on different experimental days, the test sheep underwent airway challenge with Ascaris suum antigen. […]

[1] = aerosol 0.5 mgs/kg (approximately 20 mgs), thirty minutes before antigen challenge, n=5 (FIG. 11)

For aluminum salt of octasulfated sucrose, the LAR % protection [1] was 0%, the “effect on EAR” value [1] was “no significant effect” and the “effectiveness (general statement)” value (general statement in the description, supported by FIG. 11) was “not effective”.
